Test results from patent US7834187B2, “Crystalline variable hydrate of (S)-6-(4-(2-((3-9H-carbazol-4-yloxy)-2-hydroxypropyl)amino)-2-methylpropyl)phenoxy)-3-pyridinecarbox amide hemisuccinate salt” (Eli Lilly and Company, priority 2004, dated 2010).

Tests used:
[1] = Moisture sorption analysis; format: physicochemical; details: between 10 and 80% relative humidity
Description: Various methods, including moisture sorption analysis, Karl Fischer analysis, X-ray powder diffraction (XRD) and ^13C solid-state nuclear magnetic resonance (SSNMR), are used to characterize SAM Classic Hydrate.
The SAM Classic Hydrate crystal structure retains approximately 6-11% water between 10 and 80% relative humidity. The hydrate rapidly equilibrates with the atmosphere, such that the water content observed by analytical techniques is a function of the relative humidity at which the sample was equilabrated.

B3 receptor = B3 receptor (Homo sapiens, UniProt P13945); details: single dose; as described in WO 98/09625; cited from earlier work
Chain of B3 receptor (P13945 whole entry): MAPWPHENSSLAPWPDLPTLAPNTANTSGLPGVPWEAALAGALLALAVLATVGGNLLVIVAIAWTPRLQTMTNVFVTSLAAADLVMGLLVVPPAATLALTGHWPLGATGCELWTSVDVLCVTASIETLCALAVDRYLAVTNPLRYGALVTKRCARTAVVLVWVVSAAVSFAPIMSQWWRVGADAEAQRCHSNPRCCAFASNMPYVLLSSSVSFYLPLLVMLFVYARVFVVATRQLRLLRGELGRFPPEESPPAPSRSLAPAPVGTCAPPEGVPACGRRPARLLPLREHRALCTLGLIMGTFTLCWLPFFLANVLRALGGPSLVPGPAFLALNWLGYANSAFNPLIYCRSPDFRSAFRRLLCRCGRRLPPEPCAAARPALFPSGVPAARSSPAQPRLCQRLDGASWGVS

| water retained by the crystal structure (moisture sorption profile) [1] | SMILES | % of isoproterenol's response (B3 receptor) |
| --- | --- | --- |
| 6-11% | CC(C)(Cc1ccc(Oc2ccc(C(N)=O)cn2)cc1)NC[C@H](O)COc1cccc2[nH]c3ccccc3c12.CC(C)(Cc1ccc(Oc2ccc(C(N)=O)cn2)cc1)NC[C@H](O)COc1cccc2[nH]c3ccccc3c12.O=C(O)CCC(=O)O [SAM Classic Hydrate, (S)-(3-pyridinecarboxamide,6-[4-[2-[[3-(9H-carbazol-4-yloxy)-2-hydroxypropyl]amino]-2-methylpropyl]phenoxy])-hemi-succinate salt] | – |
| – | CC(C)(Cc1ccc(Oc2ccc(C(N)=O)cn2)cc1)NC[C@H](O)COc1cccc2[nH]c3ccccc3c12 [SAM Classic free base] | at least 30% |
